17 compounds from ChEMBL document CHEMBL1139432, “Aryl sulfones as novel bradykinin B1 receptor antagonists for treatment of chronic pain” (Bioorg Med Chem Lett, 2008) can be followed below.

pIC50, pKi: −log10 of the molar value.

A short description of series [1]: Metabolic stability in human liver microsomes. Type of series: ADME, Microsome. Conditions: read-out: Stability. In general terms: Liver microsomes are a subcellular fraction often used to study metabolism.
The nature of series [2]: Metabolic stability in rat liver microsomes. Conditions: read-out: Stability. Type of series: ADME, Microsome.
Series [3] deals with T1, B1 bradykinin receptor (Homo sapiens, UniProt P46663).
T1 sequence (P46663 whole entry): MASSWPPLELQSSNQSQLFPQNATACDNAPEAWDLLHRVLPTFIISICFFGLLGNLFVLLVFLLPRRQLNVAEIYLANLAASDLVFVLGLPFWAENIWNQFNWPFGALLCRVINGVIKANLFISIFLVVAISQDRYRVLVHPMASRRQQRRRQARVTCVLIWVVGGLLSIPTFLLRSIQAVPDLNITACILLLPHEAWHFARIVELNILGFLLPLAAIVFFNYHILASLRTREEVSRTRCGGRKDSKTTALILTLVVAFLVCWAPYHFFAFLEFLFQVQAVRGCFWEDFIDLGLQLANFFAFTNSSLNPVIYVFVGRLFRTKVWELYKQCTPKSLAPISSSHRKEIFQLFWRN
Briefly: Displacement of [3H]DAK from human bradykinin B1 receptor expressed in clone CHO-D-/aequorin cells. Format: cell-based. (In general: Displacement assays read how much labelled ligand stays bound in the presence of the test substance.)

Series [4] has as its target T1, B1 bradykinin receptor. Briefly: Antagonist activity at human bradykinin B1 receptor expressed in clone CHO-D-/aequorin cells by aquerin based assay. Type of series: functional, cell-based.
Series [5] deals with T2, B1 bradykinin receptor (Oryctolagus cuniculus, UniProt P48748).
T2 sequence (P48748 whole entry): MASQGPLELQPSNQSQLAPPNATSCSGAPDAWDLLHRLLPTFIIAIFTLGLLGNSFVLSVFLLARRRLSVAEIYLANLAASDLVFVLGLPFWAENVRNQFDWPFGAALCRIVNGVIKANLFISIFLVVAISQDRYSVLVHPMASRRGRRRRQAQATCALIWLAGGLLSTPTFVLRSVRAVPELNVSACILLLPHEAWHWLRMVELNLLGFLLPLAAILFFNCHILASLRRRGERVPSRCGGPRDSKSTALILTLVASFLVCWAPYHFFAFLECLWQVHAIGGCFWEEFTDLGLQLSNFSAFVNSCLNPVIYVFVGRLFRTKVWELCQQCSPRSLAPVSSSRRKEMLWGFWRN
The series is described as follows: Antagonist activity at rabbit bradykinin B1 receptor expressed in clone CHO-D-/aequorin cells by aquerin based assay. Format: functional, cell-based.

The test system of a further series is Oryctolagus cuniculus. Briefly: Inhibition of des-Arg-Kallidin-induced hypotensive response in sc dosed rabbit. Type of series: functional, organism-based. Also on record: scale not given: the % may be the effect or the level left.

Broadly, the pKi is the negative decadic logarithm of the Ki, by convention in mol/L. What is called pIC50 is the negative decadic logarithm of the IC50, by convention in mol/L.

On to `O=C(N[C@@H]1CCCc2cc(CN3CCCCC3)ccc21)[C@H](O)[C@H](O)CS(=O)(=O)c1ccccc1`, for which the figures for the microsomal CLint in series [1] and in series [2] were 319 µL/min/mg and 50 µL/min/mg, respectively.

`O=C(C[C@@H](NS(=O)(=O)c1ccc2ccccc2c1)c1ccccc1)N[C@@H]1CCCc2cc(CN3CCCCC3)ccc21`: the figures for the microsomal CLint in series [1] and in series [2] were 919 µL/min/mg and 572 µL/min/mg, respectively.

Turning to `O=C(N[C@@H]1CCCc2cc(CN3CCCCC3)ccc21)[C@@H](O)CCS(=O)(=O)c1ccc2ccccc2c1`, at B1 bradykinin receptor [3], the pKi was 7.72. At B1 bradykinin receptor [4], this compound had a pIC50 of 7.51. The microsomal CLint in series [1] is 100 µL/min/mg; in series [2], 143 µL/min/mg.

Take `O=C(CC(CS(=O)(=O)c1ccc2ccccc2c1)c1ccccc1)N[C@@H]1CCCc2cc(CN3CCCCC3)ccc21` (stereo not given in full): at B1 bradykinin receptor [3], the pKi was 8.82. The compound further had a pIC50 on B1 bradykinin receptor [4] of 7.86. In addition, the microsomal CLint in series [1] is 744 µL/min/mg; in series [2], 167 µL/min/mg.

Regarding `CO[C@@H](CC(=O)N[C@@H]1CCCc2cc(CN3CCCCC3)ccc21)CS(=O)(=O)c1ccc2ccccc2c1`, the microsomal CLint in series [1] is 274 µL/min/mg; in series [2], 316 µL/min/mg.

For `O=C(N[C@@H]1CCCc2cc(CN3CCCCC3)ccc21)[C@H](O)[C@H](O)CS(=O)(=O)c1ccc(Cl)c(Cl)c1`, the pKi on B1 bradykinin receptor [3] was 7.77. Besides, the pIC50 on B1 bradykinin receptor [4] is 7.77; at B1 bradykinin receptor [5], 7.69. For the same compound, the microsomal CLint was 100 µL/min/mg in series [1] and 193 µL/min/mg in series [2].

On B1 bradykinin receptor [3], `CC(C)(C)c1ccc(S(=O)(=O)C[C@@H](O)[C@@H](O)C(=O)N[C@@H]2CCCc3cc(CN4CCCCC4)ccc32)cc1` gave a pKi of 7.80. For the same compound, the results for the pIC50 on B1 bradykinin receptor [4] and at B1 bradykinin receptor [5] were 8.35 and 7.60, respectively. The microsomal CLint in series [1] is 296 µL/min/mg; in series [2], 50 µL/min/mg.

For `O=C(N[C@@H]1CCCc2cc(CN3CCCCC3)ccc21)[C@H](O)CCS(=O)(=O)c1ccc2ccccc2c1`, the pKi on B1 bradykinin receptor [3] is 7.63. For the same compound, the pIC50 against B1 bradykinin receptor [4] is 7.30. The figures for the microsomal CLint in series [1] and in series [2] were 100 µL/min/mg and 50 µL/min/mg, respectively.

On B1 bradykinin receptor [3], `O=C(C[C@H](O)CS(=O)(=O)c1ccc2ccccc2c1)N[C@@H]1CCCc2cc(CN3CCCCC3)ccc21` showed a pKi of 7.38. Besides, on B1 bradykinin receptor [4], the pIC50 is 7.31. Also, the microsomal CLint is 112 µL/min/mg in series [1] and 100 µL/min/mg in series [2].

As for `O=C(N[C@@H]1CCCc2cc(CN3CCCCC3)ccc21)[C@H](O)[C@H](O)CS(=O)(=O)c1cccc(Cl)c1`, the results for the microsomal CLint in series [1] and in series [2] were 180 µL/min/mg and 139 µL/min/mg, respectively.

Regarding `O=C(CCCS(=O)(=O)c1ccc2ccccc2c1)N[C@@H]1CCCc2cc(CN3CCCCC3)ccc21`, the microsomal CLint came to 50 µL/min/mg in series [1] and 100 µL/min/mg in series [2].

On to `O=C(N[C@@H]1CCCc2cc(CN3CCCCC3)ccc21)[C@H](O)[C@H](O)CS(=O)(=O)c1cccc(Cl)c1Cl`, for which the microsomal CLint is 214 µL/min/mg in series [1] and 50 µL/min/mg in series [2].

As for `O=C(C[C@@H](O)CS(=O)(=O)c1ccc2ccccc2c1)N[C@@H]1CCCc2cc(CN3CCCCC3)ccc21`, the pKi at B1 bradykinin receptor [3] was 7.00. Moreover, at B1 bradykinin receptor [4], the pIC50 was 6.97.

`O=C(C[C@@H](NS(=O)(=O)c1cccc(C(F)(F)F)c1)c1ccc(F)cc1)N[C@@H]1CCOc2cc(CN3CCCCC3)ccc21` had an Activity in the series on Oryctolagus cuniculus of 47%.

`O=C(N[C@@H]1CCCc2cc(CN3CCCCC3)ccc21)[C@H](O)[C@H](O)CS(=O)(=O)c1ccc(C(F)(F)F)cc1`: the pKi on B1 bradykinin receptor [3] was 7.32. The pIC50 on B1 bradykinin receptor [4] is 7.35; against B1 bradykinin receptor [5], 6.68. Further, the microsomal CLint in series [1] and in series [2] was 50 µL/min/mg throughout.

Consider `CO[C@H](CCS(=O)(=O)c1ccc2ccccc2c1)C(=O)N[C@@H]1CCCc2cc(CN3CCCCC3)ccc21`, for which the microsomal CLint in series [1] was 216 µL/min/mg; in series [2], 237 µL/min/mg.

Regarding `Cc1ccc(S(=O)(=O)C[C@@H](O)[C@@H](O)C(=O)N[C@@H]2CCCc3cc(CN4CCCCC4)ccc32)cc1`, the microsomal CLint in series [1] and in series [2] was 50 µL/min/mg in each case.
